Measurements as given in patent publication US10449186B2, “Phenylethynyl-substituted benzenes and heterocycles for the treatment of cancer” (UNIVERSITY OF KENTUCKY RESEARCH FOUNDATION, priority 2017, dated 2019).
Read-outs that look alike come from different tables or passages of the source.

How the values were obtained:
cyclin D1 = test: Western blot, cyclin D1 expression in LS174T cells; assay type: cell-based; conditions: 300 nM
Description: (§1) FIG. 2A is a western blot showing the effects of 4-((2,6-difluorophenyl)ethynyl)-N,N-dimethylaniline (2), 4-((2,6-difluorophenyl)ethynyl)-N,N-dimethylisoquinolin-1-amine (5nn), and 4-((2,6-difluorophenyl)ethynyl)-N-methylisoquinolin-1-amine (5oo) on the expression of […] and p21^Wif1/Cip1 in LS174T cells at 300 nM concentrations.
(§2) Western blotting. Western blotting was performed as described previously. The following antibodies were used: anti-c-myc (Epitomics, 1472-1), anti-p21^Wif1/Cip1 (Cell Signaling, 2947), anti-β-tubulin (DSHB, E7).

[1] = system: LS174T colon cancer cells; test: LS174T cell proliferation assay; assay type: cell-based; conditions: for IC50 / inhibition at 0.03 µM / inhibition at 0.1 µM / inhibition at 1 µM / inhibition at 10 µM: Homo sapiens, LS174T; for IC50: read-out: IC50, LS174T cell proliferation assay
Description: Cell proliferation assay. LS174T cells were grown in RPMI medium (Mediatech) supplemented with 5% fetal bovine serum and 1% penicillin/streptomycin. For cell proliferation assays, 3×10^4 cells/well growing in 12-well plates were treated with DMSO or inhibitors. The cell numbers and viability were analyzed by Vi-Cell Cell Viability Analyzer after 4 days. The IC50 values were calculated with GraphPad Prim 5.

p21^Wif1/Cip1 = test: Western blot, p21^Wif1/Cip1 expression in LS174T cells; assay type: cell-based; conditions: 300 nM
Description: as §1, §2

[2] = system: LS174T colon cancer cells; conditions: data from Sviripa et al. 2014, cited from earlier work; for inhibition of proliferation (%) of colon cancer LS174T cells: Table 1; for inhibition of cell proliferation (%) of colon cancer LS174T cells: Table 2
[3] = read-out: inhibition of cell proliferation (%) of colon cancer LS174T cells
[4] = read-out: inhibition of LS174T colon cancer cell proliferation
[5] = Table 2, 100 nM, read-out: inhibition of cell proliferation (%) of colon cancer LS174T cells
[6] = Table 2, 1 μM, read-out: inhibition of cell proliferation (%) of colon cancer LS174T cells
[7] = Table 2, 10 μM, read-out: inhibition of cell proliferation (%) of colon cancer LS174T cells
[8] = Table 1, 1 μM, read-out: inhibition of proliferation (%) of colon cancer LS174T cells
[9] = Table 1, 10 μM, read-out: inhibition of proliferation (%) of colon cancer LS174T cells

Compound	inhibition at 0.1 µM [1, 3] [%]	inhibition at 1 µM [1, 3] [%]	inhibition at 10 µM [1, 3] [%]	melting point [°C]	also measured
CNc1ncc(C#Cc2c(F)cccc2F)c2ccccc12 [Compound 5oo, 4-((2,6-Difluorophenyl)ethynyl)-N-methylisoquinolin-1-amine]	99.5 ± 0.5	99.8 ± 0.2	98.9 ± 1	118 to 120	cyclin D1 expression (western blot) (cyclin D1): inhibited cyclin D1 expression; IC50 [1]: 4.2 ± 0.2 nM; inhibition at 0.03 µM [1, 3]: 94.5 ± 1.5%; p21^Wif1/Cip1 expression (western blot) (p21^Wif1/Cip1): induced p21^Wif1/Cip1
CN(C)c1ncc(C#Cc2c(F)cccc2F)c2ncccc12 [Compound 5qq, 8-((2,6-Difluorophenyl)ethynyl)-N,N-dimethyl-1,6-naphthyridin-5-amine]	59.5 ± 3.5	87.9 ± 0.8	85.2 ± 1	149 to 150	water solubility (Water solubility; hydrochloride salts): completely water-soluble; inhibition at 1 µM [1, 4]: > 75%
CN1CCN(c2ncc(C#Cc3c(F)cccc3F)c3ccccc23)CC1 [Compound 5pp, 4-((2,6-Difluorophenyl)ethynyl)-1-(4-methylpiperazin-1-yl)isoquinoline]		23.2 ± 9.4	100		water solubility (Water solubility; hydrochloride salts): completely water-soluble
CN(C)c1ccc(C#Cc2c(F)cccc2F)cc1 [Compound 2, 4-((2,6-difluorophenyl)ethynyl)-N,N-dimethylaniline]					inhibition of proliferation (%) of colon cancer LS174T cells ([2]; 100 nM): 85.2%; inhibition of proliferation (%) of colon cancer LS174T cells ([2]; 1 μM): 99.5%; inhibition of cell proliferation (%) of colon cancer LS174T cells ([2]; 30 nM): 57 ± 1.2%; inhibition of cell proliferation (%) of colon cancer LS174T cells ([2]; 100 nM): 85.2 ± 0.5%; inhibition of cell proliferation (%) of colon cancer LS174T cells ([2]; 1 μM): 99.5 ± 0.1%; cyclin D1 expression (western blot) (cyclin D1): inhibited cyclin D1 expression; water solubility (Water solubility; parent compound): sparingly water-soluble; IC50 [1]: 25.1 ± 1.3 nM; p21^Wif1/Cip1 expression (western blot) (p21^Wif1/Cip1): induced p21^Wif1/Cip1
Fc1cccc(F)c1C#Cc1cnc2ccccc2c1Cl [Compound 5q, 4-Chloro-3-((2,6-difluorophenyl)ethynyl)quinoline]				140 to 142	inhibition at 0.1 µM [1, 5]: 0%; inhibition at 1 µM [1, 6]: 51.5 ± 20.4%; inhibition at 10 µM [1, 7]: 80.4 ± 13.7%
Fc1cccc(F)c1C#Cc1cccc2ncccc12 [Compound 5v, 5-((2,6-Difluorophenyl)ethynyl)quinoline]		43.1 ± 11.2	94.7 ± 2.9	98 to 100	
Fc1cccc(F)c1C#Cc1ccc2cccnc2c1 [Compound 5x, 7-((2,6-Difluorophenyl)ethynyl)quinoline]	2.9 ± 14	90.7 ± 0.6	99.4 ± 0.3	123 to 125	inhibition at 1 µM [1, 4]: > 75%
Fc1cccc(F)c1C#Cc1cccc2cccnc12 [Compound 5y, 8-((2,6-Difluorophenyl)ethynyl)quinoline]		47.6 ± 3.5	92.7 ± 2.9	108 to 110	
CN(C)c1ncc(C#Cc2c(F)cccc2F)c2ccccc12 [Compound 5nn, 4-((2,6-difluorophenyl)ethynyl)-N,N-dimethylisoquinolin-1-amine]	81.7 ± 2.1	99.5 ± 0.1	97.6 ± 1.5	122 to 124	cyclin D1 expression (western blot) (cyclin D1): inhibited cyclin D1 expression; IC50 [1]: 11.8 ± 1.5 nM; inhibition at 0.03 µM [1, 3]: 86 ± 2%; p21^Wif1/Cip1 expression (western blot) (p21^Wif1/Cip1): induced p21^Wif1/Cip1
Fc1cccc(F)c1C#Cc1cnc2ccccc2c1 [Compound 5n, 3-((2,6-Difluorophenyl)ethynyl)quinoline]	0	41.7 ± 6.5	90.4 ± 1	115 to 117	
Fc1cccc(F)c1C#Cc1cncc2ccccc12 [Compound 5hh, 4-((2,6-Difluorophenyl)ethynyl)isoquinoline]				102 to 104	inhibition at 1 µM [1, 6]: 16.5 ± 2.1%; inhibition at 10 µM [1, 7]: 87.9 ± 1%
Fc1cccc(F)c1C#Cc1ccc2ncccc2c1 [Compound 5w, 6-((2,6-Difluorophenyl)ethynyl)quinoline]		11 ± 30.4	80.1 ± 1	91 to 93	
Fc1cccc(F)c1C#Cc1ccc2c(Cl)ccnc2c1 [Compound 5bb, 4-Chloro-7-((2,6-difluorophenyl)ethynyl)quinoline]				148 to 150	inhibition at 1 µM [1, 6]: 23.1 ± 8.3%; inhibition at 10 µM [1, 7]: 70.8 ± 4.8%
Cn1ncc2cc(C#Cc3c(F)cccc3F)ccc21 [Compound 5j, 5-((2,6-difluorophenyl)ethynyl)-1-methyl-1H-indazole]				107 to 109	inhibition at 0.1 µM [1, 5]: 0%; inhibition at 1 µM [1, 6]: 58.4 ± 9.6%; inhibition at 10 µM [1, 7]: 94.6 ± 3.5%
Nc1ncc(C#Cc2c(F)cccc2F)c2ccccc12 [Compound 5mm, 4-((2,6-Difluorophenyl)ethynyl)isoquinolin-1-amine]	35.5 ± 1.7	86.2 ± 1.6	93.1 ± 1.6	200 to 201	
Fc1cccc(F)c1C#Cc1ccc2cncnc2c1 [Compound 5rr, 7-((2,6-Difluorophenyl)ethynyl)quinazoline]				166 to 168	inhibition at 1 µM [1, 6]: 33.8 ± 4.8%; inhibition at 10 µM [1, 7]: 96.3 ± 0.8%
Fc1cccc(F)c1C#Cc1cnc2c(F)cccc2c1 [Compound 5t, 3-((2,6-Difluorophenyl)ethynyl)-8-fluoroquinoline]	8.8 ± 5.1	63.6 ± 8.4	89.1 ± 8.2	136 to 137	
Fc1cccc(F)c1C#Cc1ccc(-n2cccc2)cc1 [Compound 4d, 1-(4-((2,6-Difluorophenyl)ethynyl)phenyl)-1H-pyrrole]				122 to 124	activity in a cell proliferation assay ([1]; 100 nM): considerably diminished activity; activity in a cell proliferation assay ([1]; 1 μM): comparable to 4-((2,6-difluorophenyl)ethynyl)-N,N-dimethylaniline (2); inhibition at 0.1 µM ([1]; Table 1, 100 nM, read-out: inhibition of proliferation (%) of colon cancer LS174T cells): 11%; inhibition at 1 µM [1, 8]: 77.5%; inhibition at 10 µM [1, 9]: 96.7%
Cc1ccc(C)n1-c1ccc(C#Cc2c(F)cccc2F)cc1 [Compound 4e, 1-(4-((2,6-Difluorophenyl)ethynyl)phenyl)-2,5-dimethyl-1H-pyrrole]				124 to 126	inhibition at 1 µM [1, 8]: 20.9%; inhibition at 10 µM [1, 9]: 78.8%
Nc1ccnc2cc(C#Cc3c(F)cccc3F)ccc12 [Compound 5dd, 7-((2,6-Difluorophenyl)ethynyl)quinolin-4-amine]				219 to 221	inhibition at 1 µM [1, 6]: 23.6 ± 2.5%; inhibition at 10 µM [1, 7]: 97.7 ± 2.2%
Fc1cccc(F)c1C#Cc1cccc2[nH]ncc12 [Compound 5g, 4-((2,6-Difluorophenyl)ethynyl)-1H-indazole]		19.8 ± 13.6	96.2 ± 2	178 to 179	
